# Measured values published in the RepoRT retention time repository (doi:10.1016/j.chroma.2019.01.023).
# Assay: HILIC, Merck SeQuant ZIC-pHILIC, 150 × 2.1 mm, 5 µm, 40 °C, 0.3 mL/min, estimated dead time 1.1 min; A: acetonitrile; B: water + 2.8 mM ammonium formate, pH 9; gradient (min/%B) 0/5 1/5 10/51 13/51 13.1/5 20/5
# Details: stereoisomer not certain
row,Compound,LC retention time [min]
1,Cn1cnc2c(ncn2C2OC(CO)C(O)C2O)c1=N (stereo unspecified) [1-METHYLADENOSINE],4.07
2,"O=c1[nH]c(=O)c2nccnc2[nH]1 [2,4-DIHYDROXYPTERIDINE]",4.42
3,OCCc1c[nH]c2ccccc12 [INDOLE-3-ETHANOL],3.41
4,"O=C(O)c1ccc([O-])c(O)c1 [3,4-DIHYDROXYBENZOATE]",8.04
5,CC(CCC(=O)O)C1CCC2C3C(O)CC4CC(O)CCC4(C)C3CC(O)C12C (stereo unspecified) [CHOLATE],2.33
6,NC(=O)Cc1c[nH]c2ccccc12 [INDOLE-3-ACETAMIDE],2.09
7,Nc1ccn(C2CC(O)C(CO)O2)c(=O)n1 (stereo unspecified) [DEOXYCYTIDINE],6.63
8,O=C(O)CNC(=O)c1ccccc1 [HIPPURATE],5.32
9,O=C(O)CCCCCC(=O)O [6-CARBOXYHEXANOATE],6.74
10,CC(O)(CC(=O)O)CC(=O)O [3-HYDROXYMETHYLGLUTARATE],8.15
11,CC(CCC(=O)NCC(=O)O)C1CCC2C3C(O)CC4CC(O)CCC4(C)C3CCC12C (stereo unspecified) [GLYCOCHENODEOXYCHOLATE],4.94
12,O=C(O)c1ccnc2ccccc12 [4-QUINOLINECARBOXYLATE],5.08
13,O=C(O)c1ccc(=O)[nH]c1 [6-HYDROXYNICOTINATE],7.69
14,O=C(O)CCCCCCCC(=O)O [AZELATE],3.51
15,"N[C@@H](Cc1cc(I)c(O)c(I)c1)C(=O)O [3,5-DIIODO-L-TYROSINE]",7.41
16,Nc1nc2ncc(CNc3ccc(C(=O)NC(CCC(=O)O)C(=O)O)cc3)nc2c(=O)[nH]1 (stereo unspecified) [FOLATE],9.42
17,NC(Cc1cc(I)c(Oc2ccc(O)c(I)c2)c(I)c1)C(=O)O (stereo unspecified) [LIOTHYRONINE],6.19
18,Cc1ncc(CO)c(C(=O)O)c1O [4-PYRIDOXATE],1.69
19,O=C(O)C=Cc1ccc(O)cc1 [4-COUMARATE],5.24
20,Nc1nc2c(ncn2C2OC3COP(=O)(O)OC3C2O)c(=O)[nH]1 (stereo unspecified) [CYCLIC GMP],8.22
21,N[C@@H](Cc1ccc(O)c([N+](=O)[O-])c1)C(=O)O [3-NITRO-L-TYROSINE],7.37
22,CC(O)C(O)C1=Nc2c(nc(N)[nH]c2=O)NC1 (stereo unspecified) [DIHYDROBIOPTERIN],5.52
23,NC(Cc1c[nH]c2ccc(O)cc12)C(=O)O (stereo unspecified) [5-HYDROXYTRYPTOPHAN],8.74
24,N[C@@H](Cc1ccc(O)c(O)c1)C(=O)O [L-DOPA],9.15

# Second part, the molecule after the results:
row,LC retention time [min],Compound
1,6.1,NC(Cc1cc(I)c(Oc2cc(I)c(O)c(I)c2)c(I)c1)C(=O)O (stereo unspecified) [THYROXINE]
2,6.2,O=c1ccn(C2OC(CO)C(O)C2O)c(=O)[nH]1 (stereo unspecified) [URIDINE]
3,2.26,CC(=O)NCCc1c[nH]c2ccc(O)cc12 [N-ACETYLSEROTONIN]
4,8.75,CC(=O)NC(CCC(=O)O)C(=O)O (stereo unspecified) [N-ACETYLGLUTAMATE]
5,8.2,NC(Cc1ccc(O)cc1)C(=O)O (stereo unspecified) [TYROSINE]
6,7.04,NC(Cc1ccccc1)C(=O)O (stereo unspecified) [PHENYLALANINE]
7,5.9,Cc1cc2nc3c(=O)[nH]c(=O)nc-3n(CC(O)C(O)C(O)CO)c2cc1C (stereo unspecified) [RIBOFLAVIN]
8,2.68,Cc1c[nH]c(=O)[nH]c1=O [THYMINE]
9,2.06,Cc1cc2nc3[nH]c(=O)[nH]c(=O)c3nc2cc1C [LUMICHROME]
10,2.41,O=C(O)CCCCCCCCC(=O)O [SEBACATE]
11,4.9,CSCCC(NC(C)=O)C(=O)O (stereo unspecified) [N-ACETYLMETHIONINE]
12,2.16,Cn1c(=O)[nH]c2ncn(C)c2c1=O [PARAXANTHINE]
13,5.35,CSCC[C@H](NC=O)C(=O)O [N-FORMYL-L-METHIONINE]
14,6.05,CC(=O)N1CCCC1C(=O)O (stereo unspecified) [N-ACETYLPROLINE]
15,1.76,O=C(O)c1cccnc1C(=O)O [QUINOLINATE]
16,6.93,O=C(O)c1cc(=O)c2cccc(O)c2[nH]1 [XANTHURENATE]

# Assay: RP, Phenomenex Kinetex C18, 150 × 2.1 mm, 1.7 µm, 30 °C, 0.3 mL/min, estimated dead time 1.1 min; A: water + 0.1% formic acid, pH 3; B: acetonitrile + 0.1% formic acid, pH 3; gradient (min/%B) 0/2 14/100 17/100 17.1/2 25/2
# Details: stereoisomer not certain
row,Compound,LC retention time [min]
1,Cn1cnc2c(ncn2C2OC(CO)C(O)C2O)c1=N (stereo unspecified) [1-METHYLADENOSINE],3.16
2,"O=c1[nH]c(=O)c2nccnc2[nH]1 [2,4-DIHYDROXYPTERIDINE]",2.24
3,OCCc1c[nH]c2ccccc12 [INDOLE-3-ETHANOL],5.55
4,CC(CCC(=O)NCCS(=O)(=O)O)C1CCC2C3CCC4CC(O)CCC4(C)C3CCC12C (stereo unspecified) [LITHOCHOLYLTAURINE],9.54
5,"O=C(O)c1ccc([O-])c(O)c1 [3,4-DIHYDROXYBENZOATE]",3.77
6,CC1NCCc2cc(O)c(O)cc21 (stereo unspecified) [SALSOLINOL],1.95
7,CC(CCC(=O)O)C1CCC2C3C(O)CC4CC(O)CCC4(C)C3CC(O)C12C (stereo unspecified) [CHOLATE],9.02
8,NC(=O)Cc1c[nH]c2ccccc12 [INDOLE-3-ACETAMIDE],5.26
9,Nc1ccn(C2CC(O)C(CO)O2)c(=O)n1 (stereo unspecified) [DEOXYCYTIDINE],1.43
10,O=C(O)CNC(=O)c1ccccc1 [HIPPURATE],4.62
11,O=C(O)CCCCCC(=O)O [6-CARBOXYHEXANOATE],4.56
12,CC(O)(CC(=O)O)CC(=O)O [3-HYDROXYMETHYLGLUTARATE],2.24
13,CC(CCC(=O)NCC(=O)O)C1CCC2C3C(O)CC4CC(O)CCC4(C)C3CCC12C (stereo unspecified) [GLYCOCHENODEOXYCHOLATE],9.21
14,CC12CCC(=O)C=C1CCC1C2C(O)CC2(C)C(C(=O)CO)CCC12 (stereo unspecified) [CORTICOSTERONE],8.03
15,O=C(O)c1ccnc2ccccc12 [4-QUINOLINECARBOXYLATE],2.29
16,O=C(O)c1ccc(=O)[nH]c1 [6-HYDROXYNICOTINATE],2.61
17,O=C(O)CCCCCCCC(=O)O [AZELATE],6.14
18,"N[C@@H](Cc1cc(I)c(O)c(I)c1)C(=O)O [3,5-DIIODO-L-TYROSINE]",4.8
19,CC12CCC(=O)C=C1CCC1C2C(=O)CC2(C)C1CCC2(O)C(=O)CO (stereo unspecified) [CORTISONE],7.16
20,Nc1nc2ncc(CNc3ccc(C(=O)NC(CCC(=O)O)C(=O)O)cc3)nc2c(=O)[nH]1 (stereo unspecified) [FOLATE],11.3
21,NC(Cc1cc(I)c(Oc2ccc(O)c(I)c2)c(I)c1)C(=O)O (stereo unspecified) [LIOTHYRONINE],7.41
22,"CC(=O)c1ccc(O)cc1O [2',4'-DIHYDROXYACETOPHENONE]",6.35
23,Cc1ncc(CO)c(C(=O)O)c1O [4-PYRIDOXATE],2.73
24,O=C(O)C=Cc1ccc(O)cc1 [4-COUMARATE],5.47
25,Nc1nc2c(ncn2C2OC3COP(=O)(O)OC3C2O)c(=O)[nH]1 (stereo unspecified) [CYCLIC GMP],2.64
26,CCCCCC=CCC=CCC=CCCCCC(=O)[O-] [GAMMA-LINOLENATE],11.8
27,N[C@@H](Cc1ccc(O)c([N+](=O)[O-])c1)C(=O)O [3-NITRO-L-TYROSINE],3.48
28,CC(O)C(O)C1=Nc2c(nc(N)[nH]c2=O)NC1 (stereo unspecified) [DIHYDROBIOPTERIN],4.09

# Second part, the molecule after the results:
row,LC retention time [min],Compound
1,8.07,NC(Cc1cc(I)c(Oc2cc(I)c(O)c(I)c2)c(I)c1)C(=O)O (stereo unspecified) [THYROXINE]
2,1.88,O=c1ccn(C2OC(CO)C(O)C2O)c(=O)[nH]1 (stereo unspecified) [URIDINE]
3,4.58,CC(=O)NCCc1c[nH]c2ccc(O)cc12 [N-ACETYLSEROTONIN]
4,1.78,CC(=O)NC(CCC(=O)O)C(=O)O (stereo unspecified) [N-ACETYLGLUTAMATE]
5,2,NC(Cc1ccc(O)cc1)C(=O)O (stereo unspecified) [TYROSINE]
6,3.13,NC(Cc1ccccc1)C(=O)O (stereo unspecified) [PHENYLALANINE]
7,4.65,Cc1cc2nc3c(=O)[nH]c(=O)nc-3n(CC(O)C(O)C(O)CO)c2cc1C (stereo unspecified) [RIBOFLAVIN]
8,2.42,Cc1c[nH]c(=O)[nH]c1=O [THYMINE]
9,6.13,Cc1cc2nc3[nH]c(=O)[nH]c(=O)c3nc2cc1C [LUMICHROME]
10,6.22,CCCCCCSCC(NC(=O)CCC(N)C(=O)O)C(=O)NCC(=O)O (stereo unspecified) [S-HEXYL-GLUTATHIONE]
11,6.91,O=C(O)CCCCCCCCC(=O)O [SEBACATE]
12,4.1,CSCCC(NC(C)=O)C(=O)O (stereo unspecified) [N-ACETYLMETHIONINE]
13,2.27,Cn1c(=O)[nH]c2ncn(C)c2c1=O [PARAXANTHINE]
14,3.85,CSCC[C@H](NC=O)C(=O)O [N-FORMYL-L-METHIONINE]
15,3.39,CC(=O)N1CCCC1C(=O)O (stereo unspecified) [N-ACETYLPROLINE]
16,1.47,O=C(O)c1cccnc1C(=O)O [QUINOLINATE]
17,4.05,O=C(O)c1cc(=O)c2cccc(O)c2[nH]1 [XANTHURENATE]
18,1.8,O=C([O-])c1c[nH]c(=O)[nH]c1=O [URACIL 5-CARBOXYLATE]
